Active and inactive are the calls of the source. No cut-off for these calls is given here.
Key:
MCF7 [1] = assay: Induction of ferroptosis in human MCF7 cells assessed as cell death at 2 uM pretreated with exogenous iron Fe2+ followed by compound treatment by MTT assay; type: functional, cell-based
[2] = target: [Pyruvate dehydrogenase (acetyl-transferring)] kinase isozyme 1, mitochondrial (Homo sapiens) (UniProt Q15118); assay: Inhibition of PDK1 (unknown origin) expressed in human MCF7 cells using PDK tide as substrate measured after 90 mins in presence of ATP by ADP-Glo luminescent kinase assay
4T1 [3] = assay: Inhibition of glycolysis in mouse 4T1 cells expressing PDK assessed as reduction in extracellular lactate level at 2 uM after 6 hrs by microplate reader assay; type: functional, cell-based
L02 = assay: Cytotoxicity against human LO2 cells assessed as combination index after 72 hrs by MTT assay; type: cell-based; details: l02, 72 h
[4] = Toxicity in BALB/c nude mouse xenografted with human MCF7 cells assessed as effect on kidney at 2 mg/kg, iv administered every 2 days for 2 weeks measured after 14 days by hematoxylin and eosin staining based histopathological analysis; type: organism-based; details: in vivo, 336 h
MCF7 [5] = assay: Cytotoxicity against human MCF7 cells assessed as cell death at 2 uM pretreated with Z-VAD-fmk followed by compound addition by MTT assay; type: functional, cell-based
4T1 [6] = assay: Anticancer activity against mouse 4T1 cells expressing PDK assessed as reduction in cell viability after 72 hrs by MTT assay; type: functional, cell-based; details: 4T1, 72 h
[7] = Selectivity index, ratio IC50 for cytotoxicity against human HBMEC cells assessed as reduction in cell viability after 72 hrs by MTT assay to IC50 for anticancer activity against human A375 cells assessed as reduction in cell viability after 72 hrs by MTT assay
4T1 [8] = assay: Induction of M2-TAM polarization in mouse 4T1 cells assessed as decrease in MRC1 mRNA expression at 2 uM after 48 hrs by Western blot analysis relative to control; type: functional
MCF7 [9] = assay: Induction of apoptosis in human MCF7 cells assessed as early apoptotic cells at 2 uM after 24 hrs by Annexin V-FITC/propidium iodide staining-based flow cytometric analysis (reference value: 3.53 %); type: functional
MCF7 [10] = assay: Induction of apoptosis in human MCF7 cells assessed as viable cells at 2 uM after 24 hrs by Annexin V-FITC/propidium iodide staining-based flow cytometric analysis (reference value: 93.39 %); type: functional; details: MCF7, 24 h, read-out: Activity
4T1 [11] = assay: Synergistic anticancer activity against mouse 4T1 cells expressing assessed as combination index after 72 hrs by MTT assay; type: functional
4T1 [12] = assay: Induction of M2-TAM polarization in mouse 4T1 cells assessed as decrease in Arg1 mRNA expression at 2 uM after 48 hrs by Western blot analysis relative to control; type: functional
MCF7 [13] = assay: Induction of apoptosis in human MCF7 cells assessed as upregulation of cytochrome C expression at 2 uM after 48 hrs by Western blot analysis relative to control; type: functional
[14] = target: [Pyruvate dehydrogenase (acetyl-transferring)] kinase isozyme 1, mitochondrial (Homo sapiens) (UniProt Q15118); assay: Inhibition of PDK1 (unknown origin) in plasma using PDK tide as substrate measured after 90 mins in presence of ATP by ADP-Glo luminescent kinase assay; type: cell-free
[15] = Toxicity in BALB/c nude mouse xenografted with human MCF7 cells assessed as effect on ALP level in blood at 2 mg/kg, iv administered every 2 days for 2 weeks measured after 14 days; type: organism-based; details: in vivo, 336 h
MCF7 [16] = assay: Effect on lipid peroxidation in human MCF7 cells assessed as increase in […] at 2 uM after 15 mins by BODIPY-C11 dye based fluorescence imaging analysis relative to control; type: functional
4T1 [17] = assay: Induction of M2-TAM polarization in mouse 4T1 cells assessed as decrease in Arg1 protein level at 2 uM after 48 hrs by Western blot analysis relative to control; type: functional
[18] = Toxicity in BALB/c nude mouse xenografted with human MCF7 cells assessed as effect on spleen at 2 mg/kg, iv administered every 2 days for 2 weeks measured after 14 days by hematoxylin and eosin staining based histopathological analysis; type: organism-based; details: in vivo, 336 h
Mus musculus [19] = assay: Modulation of tumor immunosuppressive activity in BALB/c mouse xenografted with mouse 4T1 cells assessed as increase in TNFalpha expression in serum administered intratumorally every other day for 14 days measured at 2 days post-last dose by ELISA; type: functional, organism-based
MCF7 [20] = assay: Induction of mitochondrial dysfunction in human MCF7 cells assessed as cell population with intact mitochondrial membrane potential at 2 uM after 24 hrs by JC1 staining-based FACScalibur flow cytometry analysis (reference value: 97%); type: functional
Mus musculus [21] = assay: Modulation of tumor immunosuppressive activity in BALB/c mouse xenografted with mouse 4T1 cells assessed as increase in IL12 expression in tumor administered intratumorally every other day for 14 days measured at 2 days post-last dose by ELISA; type: functional, organism-based
MCF7 [22] = assay: Induction of mitochondrial dysfunction in human MCF7 cells assessed as cell population with mitochondrial membrane potential collapse at 2 uM after 24 hrs by JC1 staining-based FACScalibur flow cytometry analysis (reference value: 2.74 %); type: functional
[23] = Stability of compound in plasma (unknown origin) 37 degree C measured after 2 hrs by HPLC analysis; type: ADME, cell-free
HCT-116 = assay: Anticancer activity against human HCT116 cells expressing PDK assessed as reduction in cell viability after 72 hrs by MTT assay; type: functional, cell-based; details: HCT-116, 72 h
[24] = target: [Pyruvate dehydrogenase (acetyl-transferring)] kinase isozyme 1, mitochondrial (Homo sapiens) (UniProt Q15118); assay: Inhibition of PDK1 (unknown origin) in PBS buffer using PDK tide as substrate at pH 7.4 measured after 90 mins in presence of ATP by ADP-Glo luminescent kinase assay
MCF7 [25] = assay: Induction of ROS generation in human MCF7 cells assessed as ROS level at 2 uM after 24 hrs by DCFDA-fluorescence based flow cytometry (reference value: 6.57 %); type: functional
4T1 [26] = assay: Reversal of immunosuppression against mouse 4T1 cells implanted in BALB/c mouse assessed as growth inhibition of distal tumor at 2 mg/kg administered intratumorally every 2 days for 2 weeks measured after 14 days; type: functional, organism-based
[27] = Toxicity in BALB/c nude mouse xenografted with human MCF7 cells assessed as effect on AST level in blood at 2 mg/kg, iv administered every 2 days for 2 weeks measured after 14 days; type: organism-based; details: in vivo, 336 h
[28] = Selectivity index, ratio IC50 for cytotoxicity against human LO2 cells assessed as reduction in cell viability after 72 hrs by MTT assay to IC50 for anticancer activity against human HCT116 cells assessed as reduction in cell viability after 72 hrs by MTT assay; type: toxicity, cell-based; details: LO2 cells versus HCT116 cells, read-out: Ratio IC50
Mus musculus [29] = assay: Modulation of tumor immunosuppressive activity in BALB/c mouse xenografted with mouse 4T1 cells assessed as increase in TNFalpha expression in tumor administered intratumorally every other day for 14 days measured at 2 days post-last dose by ELISA; type: functional, organism-based
MCF7 [30] = assay: Induction of ferroptosis in human MCF7 cells assessed as cell death at 2 uM pretreated with ferroptosis inhibitor ferrostatin-1 followed by compound treatment by MTT assay; type: functional, cell-based
[31] = Toxicity in BALB/c nude mouse xenografted with human MCF7 cells assessed as effect on body weight at 2 mg/kg, iv administered every 2 days for 2 weeks measured after 14 days; type: organism-based; details: in vivo, 336 h
MCF7 [32] = assay: Induction of apoptosis in human MCF7 cells assessed as downregulation of Bcl2 expression at 2 uM after 48 hrs by Western blot analysis relative to control; type: functional

## CC1(C)CC[C@]2(C(=O)O)CC[C@]3(C)C(=CC[C@@H]4[C@@]5(C)CC[C@H](O[C@@H]6O[C@H](CO[C@@H]7OC[C@H](O)[C@H](O)[C@H]7O)[C@@H](O)[C@H](O)[C@H]6NC(=O)C(Cl)Cl)C(C)(C)[C@@H]5CC[C@]43C)[C@@H]2C1
MCF7 [1]
  Activity: Active
[2]
  inhibition: Active
4T1 [3]
  inhibition: Active
L02
  CI: 2.13
[4]
  Activity: Non-Toxic
MCF7 [5]
  Activity: inactive
4T1 [6]
  IC50: 1.31 µM
[7]
  Ratio IC50: 10.11
4T1 [8]
  fold change (FC): 3.4
MCF7 [9]
  Activity: 25.16%
MCF7 [10]
  viability at 2 µM: 47%
4T1 [11]
  CI: 0.09
4T1 [12]
  fold change (FC): 2.1
MCF7 [13]
  fold change (FC): 4.4
[14]
  inhibition: inactive
[15]
  Activity: Non-Toxic
MCF7 [16]
  fold change (FC): 2.5
4T1 [17]
  fold change (FC): 2.1
[18]
  Activity: Non-Toxic
Mus musculus [19]
  Activity: Active
MCF7 [20]
  Activity: 53.38%
Mus musculus [21]
  Activity: Active
MCF7 [22]
  Activity: 46.39%
[23]
  Stability: Stable
HCT-116
  IC50: 3.87 µM
[24]
  inhibition: inactive
MCF7 [25]
  Activity: 44.19%
4T1 [26]
  Activity: Active
[27]
  Activity: Non-Toxic
[28]
  selectivity ratio at 72 h: 12.7
Mus musculus [29]
  Activity: Active
MCF7 [30]
  Activity: inactive
[31]
  Activity: Non-Toxic
MCF7 [32]
  fold change (FC): 0.5
